Assay results reported in patent publication US20170114049A1, “2,5-DISUBSTITUTED CYCLOPENTANE CARBOXYLIC ACIDS FOR THE TREATMENT OF RESPIRATORY TRACT DISEASES” (BAYER PHARMA AKTIENGESELLSCHAFT, priority 2014, published 2017).

Legend:
Type in all cases: biochemical
MMP-8 = target: T1, MMP-8 (Homo sapiens, UniProt P22894); test: In vitro MMP-8 inhibition test
T1 construct: purchased R&D Systems 908-MP
Source text: (§1) The MMP-mediated amidolytic cleavage of a suitable peptide substrate leads to an increase in fluorescent light here too. The signal intensity of the fluorescent light is directly proportional to the enzyme activity. The active concentration of a test compound at which half the enzyme is inhibited (50% signal intensity of the fluorescent light) is reported as the […].
(§2) Recombinant MMP-8 (from R&D Systems, 908-MP) is chemically activated in accordance with the manufacturer's instructions using APMA. 1 μl of the test compound to be analysed (as a solution in DMSO, suitable concentrations, for example, 1 nM to 30 μM) is pipetted into 24 μl of activated enzyme (final concentration, for example, 0.5 nM) in reaction buffer (50 mM Tris/HCl pH 7.5, 10 mM CaCl2, 150 mM NaCl, 0.05% Brij®-35) in a white 384-hole microtiter plate (MTP). The enzymatic reaction is started by adding the intramolecularly quenched Mca-Pro-Leu-Gly-Leu-Dpa(Dnp)-Ala-Arg-NH2 substrate (final concentration, for example, 10 μM; R&D Systems, ES-001), so as to result in a total test volume of 50 μl. The course of the MMP-8 reaction is measured by measuring the fluorescence intensity (excitation 320 nm, emission 410 nm) over a suitable period of time (for example over 120 min at a temperature of 32° C.).

mouse MMP-9 = target: T2, mouse MMP-9 (Mus musculus, UniProt P41245); test: In vitro mouse MMP-9 inhibition test
T2 construct: purchased R&D Systems 909-MP
Source text: as §1
as §2, with “Recombinant mouse MMP-9” for “Recombinant MMP-8”, “Systems, 909-MP)” for “Systems, 908-MP)”, “example, 0.1” for “example, 0.5”, “example, 5” for “example, 10”, “the MMP-9” for “the MMP-8”

MMP-1 = target: T3, MMP-1 (Homo sapiens, UniProt P03956); test: In vitro MMP-1 inhibition test
T3 construct: purchased R&D Systems 901-MP
T3 sequence (P03956 100-469): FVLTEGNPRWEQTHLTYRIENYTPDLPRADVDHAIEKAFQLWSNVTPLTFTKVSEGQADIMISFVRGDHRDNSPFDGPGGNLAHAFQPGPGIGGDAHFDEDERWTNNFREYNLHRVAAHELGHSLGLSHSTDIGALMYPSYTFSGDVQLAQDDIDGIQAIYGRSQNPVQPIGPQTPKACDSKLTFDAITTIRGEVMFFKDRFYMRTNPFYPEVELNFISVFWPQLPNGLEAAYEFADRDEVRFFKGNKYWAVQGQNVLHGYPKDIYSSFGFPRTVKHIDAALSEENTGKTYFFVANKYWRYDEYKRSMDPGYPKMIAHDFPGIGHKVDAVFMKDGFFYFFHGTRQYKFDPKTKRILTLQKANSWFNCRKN
Source text: as §1
as §2, with “MMP-1” for “MMP-8”, “901-MP)” for “908-MP)”, “2” for “0.5”

MMP-14 = target: T4, MMP-14 (Homo sapiens, UniProt P50281); test: In vitro MMP-14 inhibition test
T4 construct: purchased R&D Systems 918-MP
Source text: as §1
Recombinant MMP-14 (from R&D Systems, 918-MP) is enzymatically activated in accordance with the manufacturer's instructions using recombinant furin (from R&D Systems, 1503-SE). 1 μl of the test compound to be analysed (as a solution in DMSO, suitable concentrations e.g. 1 nM to 30 μM) is pipetted into 24 μl of activated enzyme (final concentration e.g. 0.5 nM) in reaction buffer (50 mM Tris/HCl pH 7.5, 10 mM CaCl2, 150 mM NaCl, 0.05% Brij®-35) in a white 384-hole microtiter plate (MTP). The enzymatic reaction is started by adding the intramolecularly quenched Mca-Lys-Pro-Leu-Gly-Leu-Dpa(Dnp)-Ala-Arg-NH2 substrate (final concentration, for example, 5 μM; R&D Systems, ES-010), so as to result in a total test volume of 50 μl. The course of the MMP-14 reaction is measured by measuring the fluorescence intensity (excitation 320 nm, emission 410 nm) over a suitable period of time (for example over 120 min at a temperature of 32° C.).

T1 sequence (P22894 101-467): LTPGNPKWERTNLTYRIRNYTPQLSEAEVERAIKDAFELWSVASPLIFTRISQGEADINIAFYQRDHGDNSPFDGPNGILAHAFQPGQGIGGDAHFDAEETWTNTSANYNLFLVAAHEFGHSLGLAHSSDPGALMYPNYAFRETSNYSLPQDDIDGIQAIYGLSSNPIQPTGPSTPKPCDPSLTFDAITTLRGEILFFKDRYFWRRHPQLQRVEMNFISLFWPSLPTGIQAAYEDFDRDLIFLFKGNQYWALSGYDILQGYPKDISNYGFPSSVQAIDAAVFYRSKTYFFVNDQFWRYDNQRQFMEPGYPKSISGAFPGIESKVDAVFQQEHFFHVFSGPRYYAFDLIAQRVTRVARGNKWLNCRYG
T2 sequence (P41245 108-730): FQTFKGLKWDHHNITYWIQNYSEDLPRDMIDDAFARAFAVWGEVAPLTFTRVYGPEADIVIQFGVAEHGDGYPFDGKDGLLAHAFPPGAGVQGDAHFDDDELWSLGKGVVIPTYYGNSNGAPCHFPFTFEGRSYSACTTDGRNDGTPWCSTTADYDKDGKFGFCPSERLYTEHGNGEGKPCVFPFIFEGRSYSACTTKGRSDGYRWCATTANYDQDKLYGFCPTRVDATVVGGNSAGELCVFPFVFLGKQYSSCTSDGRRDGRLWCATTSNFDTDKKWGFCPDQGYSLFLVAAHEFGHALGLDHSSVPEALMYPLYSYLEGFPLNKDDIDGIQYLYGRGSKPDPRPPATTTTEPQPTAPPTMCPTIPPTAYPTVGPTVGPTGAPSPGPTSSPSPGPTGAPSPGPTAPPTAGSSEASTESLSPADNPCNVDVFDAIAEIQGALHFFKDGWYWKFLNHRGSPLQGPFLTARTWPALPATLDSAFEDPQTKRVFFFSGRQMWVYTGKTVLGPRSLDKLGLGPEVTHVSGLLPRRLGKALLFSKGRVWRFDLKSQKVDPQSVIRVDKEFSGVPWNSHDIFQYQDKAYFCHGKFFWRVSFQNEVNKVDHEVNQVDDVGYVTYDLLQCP

Molecule | IC50 (MMP-8) | IC50 (mouse MMP-9) | IC50 (MMP-1) | IC50 (MMP-14)
O=C(O)[C@@H]1[C@@H](Cn2nnc3ccccc3c2=O)CC[C@H]1C(=O)c1ccc(OCCC2CCOCC2)cc1 (single isomer, unassigned) [Example 5, (+)-(1RS,2SR,5RS)-2-[(4-Oxo-1,2,3-benzotriazin-3(4H)-yl)methyl]-5-{4-[2-(tetrahydro-2H-pyran-4-yl)ethoxy]benzoyl}cyclopentanecarboxylic acid] | 15 nM | 210 nM | > 40000 nM | 250 nM
O=C(O)[C@H]1[C@H](Cn2nnc3ccccc3c2=O)CC[C@@H]1C(=O)c1ccc(OCC2CCOCC2)cc1 (stereo in doubt) [Example 1, (+/−)-(1RS,2SR,5RS)-2-[(4-Oxo-1,2,3-benzotriazin-3(4H)-yl)methyl]-5-[4-(tetrahydro-2H-pyran-4-ylmethoxy)benzoyl]cyclopentanecarboxylic acid] | 11 nM | 560 nM | 26000 nM | 160 nM
O=C(O)[C@@H]1[C@@H](Cn2nnc3ccc(C(F)(F)F)cc3c2=O)CC[C@H]1C(=O)c1ccc(OCCC2CCOCC2)cc1 (single isomer, unassigned) [Example 11, (+)-(1RS,2SR,5RS)-2-{[4-Oxo-6-(trifluoromethyl)-1,2,3-benzotriazin-3(4H)-yl]methyl}-5-{4-[2-(tetrahydro-2H-pyran-4-yl)ethoxy]benzoyl}cyclopentanecarboxylic acid] | 5.6 nM | 1900 nM | 27000 nM | 1200 nM
O=C(O)[C@@H]1[C@@H](Cn2nnc3ccccc3c2=O)CC[C@H]1C(=O)c1ccc(OCC2CCOCC2)cc1 (stereo in doubt) [Example 2, (+)-(1RS,2SR,5RS)-2-[(4-Oxo-1,2,3-benzotriazin-3(4H)-yl)methyl]-5-[4-(tetrahydro-2H-pyran-4-ylmethoxy)benzoyl]cyclopentanecarboxylic acid] | 4.7 nM | 280 nM | 10000 nM | 99 nM
O=C(O)[C@H]1[C@H](Cn2nnc3ccccc3c2=O)CC[C@@H]1C(=O)c1ccc(OCCC2CCOCC2)cc1 (stereo in doubt) [Example 4, (+/−)-(1RS,2SR,5RS)-2-[(4-Oxo-1,2,3-benzotriazin-3(4H)-yl)methyl]-5-{4-[2-(tetrahydro-2H-pyran-4-yl)ethoxy]benzoyl}cyclopentanecarboxylic acid] | 98 nM | 1500 nM | > 40000 nM | 2700 nM
O=C(O)[C@H]1[C@H](Cn2nnc3ccc(C(F)(F)F)cc3c2=O)CC[C@@H]1C(=O)c1ccc(OCCC2CCOCC2)cc1 (stereo in doubt) [Example 10, (+/−)-(1RS ,2S R,5RS)-2-{[4-Oxo-6-(trifluoromethyl)-1,2,3-benzotriazin-3(4H)-yl]methyl}-5-{4-[2-(tetrahydro-2H-pyran-4-yl)ethoxy]benzoyl}cyclopentanecarboxylic acid] | 3.9 nM | 930 nM | 8800 nM | 600 nM
(+)-(1RS,2SR,5RS)-2-{[4-Oxo-6-(trifluoromethyl)-1,2,3-benzotriazin-3(4H)-yl]methyl}-5-[4-(tetra-hydro-2H-pyran-4-ylmethoxy)benzoyl]cyclopentanecarboxylic acid [Example 8] | 0.6 nM | – | 1800 nM | 100 nM
O=C(O)[C@H]1[C@H](Cn2nnc3ccc(C(F)(F)F)cc3c2=O)CC[C@@H]1C(=O)c1ccc(OCC2CCOCC2)cc1 (racemic) [Example 7, (+/−)-(1RS,2SR,5RS)-2-{[4-Oxo-6-(trifluoromethyl)-1,2,3-benzotriazin-3(4H)-yl]methyl}-5-[4-(tetrahydro-2H-pyran-4-ylmethoxy)benzoyl]cyclopentanecarboxylic acid] | 1 nM | – | 6500 nM | 170 nM

The next lines start with the values.

IC50 (MMP-8) | IC50 (mouse MMP-9) | IC50 (MMP-1) | IC50 (MMP-14) | Molecule
0.9 nM | – | 11000 nM | 150 nM | O=C(O)[C@@H]1[C@@H](Cn2nnc3ccc(C(F)(F)F)cc3c2=O)CC[C@H]1C(=O)c1ccc(SCC2CCOCC2)cc1 (single isomer, unassigned) [Example 15, (+)-(1RS,2SR,5RS)-2-{[4-Oxo-6-(trifluoromethyl)-1,2,3-benzotriazin-3(4H)-yl]methyl}-5-{4-[(tetrahydro-2H-pyran-4-ylmethyl)sulphanyl]benzoyl}cyclopentanecarboxylic acid]
10 nM | 800 nM | > 40000 nM | 1000 nM | Cc1ccc2nnn(C[C@H]3CC[C@@H](C(=O)c4ccc(OCCC5CCOCC5)cc4)[C@@H]3C(=O)O)c(=O)c2c1 (single isomer, unassigned) [Example 20, (+)-(1RS,2SR,5RS)-2-[(6-Methyl-4-oxo-1,2,3-benzotriazin-3(4H)-yl)methyl]-5-{4-[2-(tetrahydro-2H-pyran-4-yl)ethoxy]benzoyl}cyclopentanecarboxylic acid]
28 nM | 2200 nM | > 40000 nM | 2700 nM | Cc1ccc2nnn(C[C@@H]3CC[C@H](C(=O)c4ccc(OCCC5CCOCC5)cc4)[C@H]3C(=O)O)c(=O)c2c1 (racemic) [Example 19, (+/−)-(1RS,2SR,5RS)-2-[(6-Methyl-4-oxo-1,2,3-benzotriazin-3(4H)-yl)methyl]-5-{4-[2-(letrahydro-2H-pyran-4-yl)ethoxy]benzoyl}cyclopentanecarboxylic acid]
